Structures can show the parent of a compound that is named as a salt.
How the values were obtained:
[1] = system: 4 mycoplasma (M. gallisepticum, M. capricolum, M. hominis, A. laidlawii); assay: organism not typed; type: cell-based; details: read-out: 50% inhibition of growth
albino mice [2] = assay: Stereotyped behaviour in mice; type: in vivo, Male ICR albino mice; design: stereotyped behaviour score / Total Score / Mean Score: scale not given here; details: for stereotyped behaviour score / Mean Score / Total Score: 50 mg/kg i.p.; for Mean Score: mean of 4 mice; for stereotyped behaviour activity: summary in words
Protocol: Male ICR albino mice weighing 25-30 g were put in cages with a metal grid floor, 4 in each cage. Drugs were injected intraperitoneally and stereotyped behaviour (sniffing, biting, repetitive head movement) was evaluated every 30 min.

albino mice [3] = assay: Stereotyped behaviour in mice; type: in vivo, Male ICR albino mice; design: scale not given here; details: 50 mg/kg i.p.
albino rats = assay: Antiparkinson activity (catalepsy produced by haloperidol); type: in vivo, Male Charles River albino rats; details: for antiparkinson activity: summary in words
Protocol: Male Charles River albino rats, weighing 200-250 g, were used. Catalepsy was produced by haloperidol, 5 mg/kg i.p. The animals were placed with their front paws on a horizontal bar, about 10 cm above the ground, and animals were considered cataleptic if not changing posture for at least 30 sec. Cataleptic animals were injected i.p. with one of the drugs at a dose of 40-80 mg/kg. Catalepsy was estimated again at the intervals indicated.

[4] = Toxic limit in the HSV replication test; details: monkey, bsc-1 cells
HSV-1 (Herpes Simplex) = assay: Inhibition test on HSV replication; type: cell-based; details: Human alphaherpesvirus 1, BSC-1 cells, 10 PFU/cell; for inhibition at 25 µg/mL: 25 μg/ml; for inhibition at 50 µg/mL: 50 μg/ml, read-out: % Inhibition; for inhibition at 100 µg/mL: 100 μg/ml
Description: BSC-1 (Green monkey kidney)
**% Inhibition of control infected for some time with same virus PFV with […]

[5] = system: Leptospira canicola Kipod 146; assay: Anti leptospiral activity (minimal inhibition concentration); type: cell-based; details: for MIC: Leptospira interrogans, KIPOD146, 240 h; for anti leptospiral activity: summary in words
Protocol: The tests were carried out under the following conditions:
Leptospira: Leptospira canicola Kipod 146
Inoculum: 1-10^5 cells/ml
Incubation time: 10 days, 28° C.
Evaluation: Direct count in dark field microscopy after 4,7 and 10 days.
2 Minimal+0.5% albumin (Pentex)
3 Korthof rich medium with 8% serum.
4 Korthof rich medium with 2% serum.

L. tropica promastigotes = assay: Anti leishmania test, promastigotes in vitro; type: cell-based; details: 27° C.
Protocol: (§1) b. promastigotes in Mc Coy's medium in vitro at 27° C.
+++=No viable parasites after 24 hours
++=No viable parasites after 48 hours
+=No viable parasites after 72 hours
±=No viable parasites after 96 hours p2 -=viable parasites after 120 hours.

Leishmania = assay: Anti leishmania tests, summary; type: cell-based, L. tropica; details: summary in words
Protocol: (§2) a. amastigotes in peritoneal exudate cells in Mc Coy's medium in vitro at 37° C.
as §1

L. tropica amastigotes = assay: Anti leishmania test, amastigotes in peritoneal exudate cells in vitro; type: cell-based; details: 37° C.
Protocol: as §2
+++=clearance of all parasites in 24 hours
++=clearance of all parasites in 48 hours
+=clearance of all parasites in 72 hours
±=Partial clearance of parasites in 72 hours or more
-=No activity against parasites.

c1ccc(CCNNC2C3CC4CC(C3)CC2C4)cc1 (stereo not shown) [Example 2, 1-(2'-Adamantyl)-2-phenethylhydrazine hydrochloride]
IC50 [1]: 5 to 30 µg/mL

C1CCN(NC2C3CC4CC(C3)CC2C4)CC1 (stereo not shown) [Example 10, 1-(2'-Adamantylamino)piperidine hydrochloride]
stereotyped behaviour score (albino mice [2]; 0 min, mouse 1): 0
stereotyped behaviour score (albino mice [2]; 0 min, mouse 2): 0
stereotyped behaviour score (albino mice [2]; 0 min, mouse 3): 0
stereotyped behaviour score (albino mice [2]; 0 min, mouse 4): 0
stereotyped behaviour score (albino mice [2]; 30 min, mouse 1): 1
stereotyped behaviour score (albino mice [2]; 30 min, mouse 2): 1
stereotyped behaviour score (albino mice [2]; 30 min, mouse 3): 1
stereotyped behaviour score (albino mice [2]; 30 min, mouse 4): 1
stereotyped behaviour score (albino mice [2]; 45 min, mouse 3): 1
stereotyped behaviour score (albino mice [2]; 45 min, mouse 4): 0
stereotyped behaviour score (albino mice [2]; 60 min, mouse 1): 1
stereotyped behaviour score (albino mice [2]; 60 min, mouse 2): 1
stereotyped behaviour score (albino mice [2]; 60 min, mouse 3): 1
stereotyped behaviour score (albino mice [2]; 60 min, mouse 4): 1
stereotyped behaviour score (albino mice [2]; 90 min, mouse 1): 1
stereotyped behaviour score (albino mice [2]; 90 min, mouse 2): 1
stereotyped behaviour score (albino mice [2]; 90 min, mouse 3): 1
stereotyped behaviour score (albino mice [2]; 90 min, mouse 4): 1
stereotyped behaviour score (albino mice [2]; 120 min, mouse 1): 0
stereotyped behaviour score (albino mice [2]; 120 min, mouse 2): 0
stereotyped behaviour score (albino mice [2]; 120 min, mouse 3): 0
stereotyped behaviour score (albino mice [2]; 120 min, mouse 4): 0
stereotyped behaviour score (albino mice [2]; 135 min, mouse 1): 0
stereotyped behaviour score (albino mice [2]; 135 min, mouse 2): 0
stereotyped behaviour score (albino mice [2]; 150 min, mouse 1): 0
stereotyped behaviour score (albino mice [2]; 150 min, mouse 2): 0
stereotyped behaviour score (albino mice [2]; 150 min, mouse 3): 0
stereotyped behaviour score (albino mice [2]; 150 min, mouse 4): 0
stereotyped behaviour score (albino mice [2]; 180 min, mouse 1): 1
stereotyped behaviour score (albino mice [2]; 180 min, mouse 2): 1
stereotyped behaviour score (albino mice [2]; 180 min, mouse 3): 0
stereotyped behaviour score (albino mice [2]; 180 min, mouse 4): 0
stereotyped behaviour score (albino mice [2]; 210 min, mouse 1): 1
stereotyped behaviour score (albino mice [2]; 210 min, mouse 2): 0
stereotyped behaviour score (albino mice [2]; 210 min, mouse 3): 0
stereotyped behaviour score (albino mice [2]; 210 min, mouse 4): 0
stereotyped behaviour score (albino mice [2]; 240 min, mouse 1): 0
stereotyped behaviour score (albino mice [2]; 240 min, mouse 2): 0
stereotyped behaviour score (albino mice [2]; 240 min, mouse 3): 0
stereotyped behaviour score (albino mice [2]; 240 min, mouse 4): 0
Mean Score (albino mice [2]): 4.75
Total Score (albino mice [2]; mouse 1): 6
Total Score (albino mice [2]; mouse 2): 6
Total Score (albino mice [2]; mouse 3): 4
Total Score (albino mice [2]; mouse 4): 3
stereotyped behaviour activity (albino mice [2]): active
stereotyped behaviour score (albino mice [3]; 45 min, mouse 1): 1
stereotyped behaviour score (albino mice [3]; 45 min, mouse 2): 2
stereotyped behaviour score (albino mice [3]; 135 min, mouse 3): 0
stereotyped behaviour score (albino mice [3]; 135 min, mouse 4): 0
Mean maximal effect (albino rats; 80 mg/kg i.p., mean of 5 rats): 1/4
anticataleptic effect (albino rats; 80 mg/kg i.p., rat 1): 0/4
anticataleptic effect (albino rats; 80 mg/kg i.p., rat 2): 1/4
anticataleptic effect (albino rats; 80 mg/kg i.p., rat 3): 0/4
anticataleptic effect (albino rats; 80 mg/kg i.p., rat 4): 1/4
anticataleptic effect (albino rats; 80 mg/kg i.p., rat 5): 3/4
antiparkinson activity (albino rats): active
MNTC [4]: 50 µg/mL
inhibition at 10 µg/mL (HSV-1 (Herpes Simplex); 10 μg/ml): 50%
inhibition at 25 µg/mL (HSV-1 (Herpes Simplex)): 40%
inhibition at 50 µg/mL (HSV-1 (Herpes Simplex)): 96%
MIC ([5]; Korthof + 8% serum): 100 µg/mL
MIC ([5]; minimal medium): 12.5 µg/mL
anti leptospiral activity [5]: active
IC50 [1]: 5 to 30 µg/mL

c1ccc(CN2CCN(NC3C4CC5CC(C4)CC3C5)CC2)cc1 (stereo not shown) [Example 16, 1-(2'-Adamantylamino)-4-benzylpiperazine dihydrochloridemonohydrate]
Leishmania promastigote activity score (L. tropica promastigotes; 10 μg): +++ (No viable parasites after 24 hours)
Leishmania promastigote activity score (L. tropica promastigotes; 100 μg): +++ (No viable parasites after 24 hours)
activity against Leishmania (Leishmania): active
IC50 [1]: 5 to 30 µg/mL

CN(N)C1C2CC3CC(C2)CC1C3 (stereo not shown) [Example 27, 1-(2'-Adamantyl)-1-methylhydrazine hydrochloride]
Leishmania promastigote activity score (L. tropica promastigotes; 100 μg): +++ (No viable parasites after 24 hours)
stereotyped behaviour score (albino mice [2]; 0 min, mouse 1): 0
stereotyped behaviour score (albino mice [2]; 0 min, mouse 2): 0
stereotyped behaviour score (albino mice [2]; 0 min, mouse 3): 0
stereotyped behaviour score (albino mice [2]; 0 min, mouse 4): 0
stereotyped behaviour score (albino mice [2]; 30 min, mouse 1): 0
stereotyped behaviour score (albino mice [2]; 30 min, mouse 2): 0
stereotyped behaviour score (albino mice [2]; 30 min, mouse 3): 1
stereotyped behaviour score (albino mice [2]; 30 min, mouse 4): 0
stereotyped behaviour score (albino mice [2]; 45 min, mouse 3): 1
stereotyped behaviour score (albino mice [2]; 45 min, mouse 4): 1
stereotyped behaviour score (albino mice [2]; 60 min, mouse 1): 2
stereotyped behaviour score (albino mice [2]; 60 min, mouse 2): 2
stereotyped behaviour score (albino mice [2]; 60 min, mouse 3): 2
stereotyped behaviour score (albino mice [2]; 60 min, mouse 4): 2
stereotyped behaviour score (albino mice [2]; 90 min, mouse 1): 2
stereotyped behaviour score (albino mice [2]; 90 min, mouse 2): 2
stereotyped behaviour score (albino mice [2]; 90 min, mouse 3): 2
stereotyped behaviour score (albino mice [2]; 90 min, mouse 4): 2
stereotyped behaviour score (albino mice [2]; 120 min, mouse 1): 1
stereotyped behaviour score (albino mice [2]; 120 min, mouse 2): 1
stereotyped behaviour score (albino mice [2]; 120 min, mouse 3): 0
stereotyped behaviour score (albino mice [2]; 120 min, mouse 4): 0
stereotyped behaviour score (albino mice [2]; 135 min, mouse 1): 1
stereotyped behaviour score (albino mice [2]; 135 min, mouse 2): 1
stereotyped behaviour score (albino mice [2]; 150 min, mouse 1): 1
stereotyped behaviour score (albino mice [2]; 150 min, mouse 2): 1
stereotyped behaviour score (albino mice [2]; 150 min, mouse 3): 0
stereotyped behaviour score (albino mice [2]; 150 min, mouse 4): 0
stereotyped behaviour score (albino mice [2]; 180 min, mouse 1): 0
stereotyped behaviour score (albino mice [2]; 180 min, mouse 2): 0
stereotyped behaviour score (albino mice [2]; 180 min, mouse 3): 0
stereotyped behaviour score (albino mice [2]; 180 min, mouse 4): 0
stereotyped behaviour score (albino mice [2]; 210 min, mouse 1): 0
stereotyped behaviour score (albino mice [2]; 210 min, mouse 2): 1
stereotyped behaviour score (albino mice [2]; 210 min, mouse 3): 0
stereotyped behaviour score (albino mice [2]; 210 min, mouse 4): 0
stereotyped behaviour score (albino mice [2]; 240 min, mouse 1): 0
stereotyped behaviour score (albino mice [2]; 240 min, mouse 2): 0
stereotyped behaviour score (albino mice [2]; 240 min, mouse 3): 0
stereotyped behaviour score (albino mice [2]; 240 min, mouse 4): 0
Mean Score (albino mice [2]): 6.5
Total Score (albino mice [2]; mouse 1): 7
Total Score (albino mice [2]; mouse 2): 9
Total Score (albino mice [2]; mouse 3): 6
Total Score (albino mice [2]; mouse 4): 5
stereotyped behaviour activity (albino mice [2]): active
stereotyped behaviour score (albino mice [3]; 45 min, mouse 1): 0
stereotyped behaviour score (albino mice [3]; 45 min, mouse 2): 1
stereotyped behaviour score (albino mice [3]; 135 min, mouse 3): 0
stereotyped behaviour score (albino mice [3]; 135 min, mouse 4): 0
anticataleptic effect (albino rats; 80 mg/kg i.p., rat 1): 3/4
anticataleptic effect (albino rats; 80 mg/kg i.p., rat 2): 1/4
anticataleptic effect (albino rats; 80 mg/kg i.p., rat 3): 2/4
anticataleptic effect (albino rats; 80 mg/kg i.p., rat 4): 3/4
anticataleptic effect (albino rats; 80 mg/kg i.p., rat 5): 4/4
antiparkinson activity (albino rats): active
MNTC [4]: 100 µg/mL
Leishmania amastigote activity score (L. tropica amastigotes; 10 μg): ± (Partial clearance of parasites in 72 hours or more)
Leishmania amastigote activity score (L. tropica amastigotes; 100 μg): ++ (clearance of all parasites in 48 hours)
inhibition at 25 µg/mL (HSV-1 (Herpes Simplex)): 46%
inhibition at 50 µg/mL (HSV-1 (Herpes Simplex)): 81%
inhibition at 100 µg/mL (HSV-1 (Herpes Simplex)): 100%
activity against Leishmania (Leishmania): active
MIC ([5]; Korthof + 8% serum): 50 µg/mL
MIC ([5]; minimal + Pentex (0.5% albumin)): 6.25 µg/mL
MIC ([5]; minimal medium): 3.12 µg/mL
anti leptospiral activity [5]: active

O=C(O)CNNC1C2CC3CC(C2)CC1C3 (stereo not shown) [Example 36, [2-(2'-adamantyl)hydrazino]acetic acid hydrochloride]
Leishmania promastigote activity score (L. tropica promastigotes; 100 μg): ++ (No viable parasites after 48 hours)
anticataleptic effect (albino rats; 80 mg/kg i.p., rat 1): 2/4
anticataleptic effect (albino rats; 80 mg/kg i.p., rat 2): 1/4
anticataleptic effect (albino rats; 80 mg/kg i.p., rat 3): 3/4
anticataleptic effect (albino rats; 80 mg/kg i.p., rat 4): 2/4
anticataleptic effect (albino rats; 80 mg/kg i.p., rat 5): 0/4
antiparkinson activity (albino rats): active
MNTC [4]: 200 µg/mL
Leishmania amastigote activity score (L. tropica amastigotes; 100 μg): ++ (clearance of all parasites in 48 hours)
inhibition at 50 µg/mL (HSV-1 (Herpes Simplex)): 0%
inhibition at 100 µg/mL (HSV-1 (Herpes Simplex)): 0%
inhibition at 200 µg/mL (HSV-1 (Herpes Simplex); 200 μg/ml): 98%
activity against Leishmania (Leishmania): active

From patent US4254128A, “2-Adamantyl hydrazines and biocidal compositions thereof” (Teva Pharmaceutical Industries Ltd., priority 1977, dated 1981)
